Converted amounts (≈) assume the structure as drawn.
Key:
[1] = test system: E. faecium 501; assay: Micro-broth MIC assay, E. faecium 501; format: cell-based, Enterococcus faecium; details: Gram-(+), clinical strain, triplicate, no growth after 16-24 hours at 37° C.; for MIC: Enterococcus faecium, 501, read-out: Minimum Inhibitory Concentration (MIC) E. faecium 501
[2] = test system: Methicillin-Resistant Staphylococcus aureus 371 (MRSA 371); assay: Micro-broth MIC assay, MRSA 371; format: cell-based; details: for MIC: Staphylococcus aureus, MRSA, read-out: Minimum Inhibitory Concentration (MIC) MRSA 371; for Minimum Inhibitory Concentration (MIC) MRSA 371: Gram-(+), clinical strain, triplicate, no growth after 16-24 hours at 37° C.
Method: (§1) Four clinical strains were used for these studies, Enterococcus faecalis S613, Enterococcus faecium isolate 105, Methicillin-Resistant Staphylococcus aureus 371 (MRSA 371) and Acinetobacter baumannii AB210. Enterococcus strains were cultured in 80% Lysogeny Broth (LB) & 20% Brain Heart Infusion (BHI). MRSA 371 and AB210 were cultured in 100% LB.
(§2) Micro-broth MIC assays were performed in triplicate using 96-well plates. Wells were filled with 150 μL of broth media and inoculated with 2 μL of stationary phase culture. The concentration of the test antibiotics increased in 2-fold increments and ranged from 0.25-128 μg/mL. Plates were incubated overnight at 37° C. and the MICs were defined as the lowest drug concentration that had no growth after 16-24 hours.

[3] = test system: Enterococcus faecalis S613; assay: Micro-broth MIC assay, E. faecalis S613; format: cell-based; details: for MIC: Enterococcus faecalis, S613, read-out: Minimum Inhibitory Concentration (MIC) E. faecalis S613; for Minimum Inhibitory Concentration (MIC) E. faecalis S613: Gram-(+), clinical strain, triplicate, no growth after 16-24 hours at 37° C.
Method: as §1, §2

[4] = test system: Acinetobacter baumannii AB210; assay: Micro-broth MIC assay, A. baumannii AB210; format: cell-based; details: for MIC: Acinetobacter baumannii, AB210, read-out: Minimum Inhibitory Concentration (MIC) A. baumannii AB210; for Minimum Inhibitory Concentration (MIC) A. baumannii AB210: Gram-(−), clinical strain, triplicate, no growth after 16-24 hours at 37° C.
Method: as §1, §2

| Compound | MIC [1] [µg/mL] | MIC [2] [µg/mL] | MIC [3] [µg/mL] | MIC [4] [µg/mL] | Minimum Inhibitory Concentration (MIC) E. faecium 501 [1] [µg/mL] | Minimum Inhibitory Concentration (MIC) MRSA 371 [2] [µg/mL] | Minimum Inhibitory Concentration (MIC) E. faecalis S613 [3] [µg/mL] | Minimum Inhibitory Concentration (MIC) A. baumannii AB210 [4] [µg/mL] |
| --- | --- | --- | --- | --- | --- | --- | --- | --- |
| COc1cc(O)c2c(O)c3c(c4c2c1[C@]1(C4)C(C)=CCCC1(C)C)C(=O)[C@H]1CC(O)=C(C(N)=O)C(=O)[C@@]1(O)C3=O (racemic) [(±)-V2] | 0.5 (≈ 0.913 µM) | 2 (≈ 3.65 µM) | 0.5 (≈ 0.913 µM) | 64 (≈ 117 µM) |  |  |  |  |
| COc1cc(O)c2c(O)c3c(c4c2c1[C@@]1(C4)C(C)=CCCC1(C)C)C(=O)[C@H]1CC(O)=C(C(N)=O)C[C@@]1(O)C3=O (racemic) [(±)-V3] | 2 (≈ 3.75 µM) | 8 (≈ 15 µM) | 4 (≈ 7.5 µM) | 64 (≈ 120 µM) |  |  |  |  |
| COc1cc(OC)c2c(O)c3c(c4c2c1[C@@]1(C4)C(C)=CCCC1(C)C)C(=O)[C@H]1CC(O)=C(C(N)=O)C[C@@]1(O)C3=O (racemic) [(±)-V4] | 4 (≈ 7.3 µM) | 4 (≈ 7.3 µM) | 4 (≈ 7.3 µM) | 64 (≈ 117 µM) |  |  |  |  |
| COc1cc(O)c2c(O)c3c(c4c2c1[C@]1(C4)C(C)=CCCC1(C)C)[C@H](O)[C@H]1CC(O)=C(C(N)=O)C(=O)[C@@]1(O)C3=O (racemic) [(±)-V5] | 1 (≈ 1.82 µM) | 8 (≈ 14.6 µM) | 1 (≈ 1.82 µM) | 64 (≈ 116 µM) |  |  |  |  |
| COc1cc(O)c2c(O)c3c(c4c2c1[C@]1(C4)C(C)=CCCC1(C)C)[C@@H](O)[C@H]1CC(O)=C(C(N)=O)C(=O)[C@@]1(O)C3=O (racemic) [(±)-V6] | 0.5 (≈ 0.91 µM) | 2 (≈ 3.64 µM) | 0.5 (≈ 0.91 µM) | 64 (≈ 116 µM) |  |  |  |  |
| COc1cc(O)c2c(O)c3c(c4c2c1[C@]1(C4)C(C)=CCCC1(C)C)[C@H](O)[C@@]1(O)CC(=O)C(C(N)=O)=C(O)[C@@]1(O)C3=O [(+)-2, viridicatumtoxin A] |  |  |  |  | 1 | 4 | 1 | 64 |
| viridicatumtoxin B [(±)-1, reference compound] |  |  |  |  | 0.5 | 4 | 1 | 64 |

— patent publication US10065924B2, “Preparation and biological evaluation of viridicatumtoxin analogs” (priority 2014, dated 2018)
